Read-outs that look alike come from different tables or passages of the source.
Legend:
[1] = system: delayed-type hypersensitivity reaction; test: delayed-type hypersensitivity reaction to 2,4-dinitrochlorobenzene in guinea pigs; format: in vivo
[2] = system: delayed-type hypersensitivity reaction; test: delayed-type hypersensitivity reaction to rat's thymocytes in mice (popliteal lymph nodes); format: in vivo
[3] = physical properties of the compounds; format: physicochemical
in vivo = details: mouse, sc
[4] = system: IgE antibodies in respiratory organs
Protocol: The local production of IgE-antibodies in trachea and lungs of rats of the lines WAY, August with a mass of 250-300 g was induced by means of a successive (with the interval of 40 minutes) dropping a 0.1% solution of histamine and ambrosia allergen (10,000 PNU/ml) into both nasal passages. […] One day after the administration of the allergen IgE-antibodies were determined in homogenates of trachea and lungs prepared at the rate of 0.1 ml of a physiological solution per 10 mg of the tissue by the method of indirect degranulation of obese cells.

[5] = system: allergic reaction of the delayed type in mice; test: delayed-type (contact) hypersensitivity reaction to dinitrochlorobenzene, ear thickness in mice; format: in vivo, CBA mice; details: for Ear thickness, Control, Average value / Ear thickness, Control, Range of fluctuations: control (right) ear; for Ear thickness, Experiment, Average value / Ear thickness, Experiment, Range of fluctuations: test (left) ear
[6] = system: virus of vesicular stomatitis; format: cell-based
[7] = 100 μg/ml, negative = test value exceeded the control
[8] = 100 μg/ml, certainty: (II), (III) below 0.05, (I), levamizole above 0.05
[9] = 500 μg/ml, certainty: all below 0.05

COC(=O)C[N+]1=C2SCCN2CC1c1ccccc1 (stereo not shown) [Compound (I), 2,3,5,6-tetrahydro-6-phenyl-7-methoxycarbonylmethylimidazo-[2,1-b]-thiazolium bromide]
Difference in temperature of the pad surfaces, Average value [1, 7]: -1.5 ± 0.27 °C | Difference in thickness of control and test talipes, Average value [1, 7]: -0.6 ± 0.062 mm | Difference in masses of popliteal lymph nodes in the control and test limb, Average value [2, 7]: -1.1 ± 0.08 mg | Difference in masses of popliteal lymph nodes in the control and test limb, Average value ([2]; 500 μg/ml): +1.3 ± 0.2 mg | solubility in acetone ([3]; acetone): sparingly soluble | solubility in benzene ([3]; benzene): sparingly soluble | solubility in lower alcohols [3]: soluble | solubility in water [3]: soluble | LD50 (in vivo): 262 mg/kg | Percent of degranulated mastocytes, Lungs [4, 8]: 19.4 ± 1.8% | Percent of degranulated mastocytes, Trachea [4, 8]: 17.8 ± 1.3% | Percent of degranulated mastocytes, Lungs [4, 9]: 9.3 ± 0.8% | Percent of degranulated mastocytes, Trachea [4, 9]: 7.0 ± 0.2%

CCCCCCCCCCOC(=O)C[N+]1=C2SCCN2CC1c1ccccc1 (stereo not shown) [Compound (II), 2,3,5,6-tetrahydro-6-phenyl-7-decyloxycarbonylmethylimidazo-[2,1-b]-thiazolium bromide]
Ear thickness, Control, Average value ([5]; 2.5 mg/kg per os): 202.2 μm | Ear thickness, Control, Range of fluctuations ([5]; 2.5 mg/kg per os): 150-250 μm | Ear thickness, Experiment, Average value ([5]; 2.5 mg/kg per os): 222.8 μm | Ear thickness, Experiment, Range of fluctuations ([5]; 2.5 mg/kg per os): 175-300 μm | Ear thickness, Control, Average value ([5]; 25 mg/kg per os): 178.9 μm | Ear thickness, Control, Range of fluctuations ([5]; 25 mg/kg per os): 150-240 μm | Ear thickness, Experiment, Average value ([5]; 25 mg/kg per os): 184.4 μm | Ear thickness, Experiment, Range of fluctuations ([5]; 25 mg/kg per os): 170-240 μm | dose sufficient for inhibition of the contact hypersensitivity, lower than that of levamizole ([5]; ratio to levamizole): 10 times | Difference in temperature of the pad surfaces, Average value ([1]; 1,000 μg/ml): +1.2 ± 0.16 °C | Difference in thickness of control and test talipes, Average value ([1]; 1,000 μg/ml): +0.63 ± 0.09 mm | Difference in masses of popliteal lymph nodes in the control and test limb, Average value ([2]; 1,000 μg/ml): +1.3 ± 0.29 mg | Degree of inhibition of the virus reproduction ([6]; 1 μg/ml): 10 times | Degree of inhibition of the virus reproduction ([6]; 10 μg/ml): 100 times | solubility in lower alcohols [3]: soluble | solubility in water [3]: soluble | LD50 (in vivo): 167 mg/kg | Percent of degranulated mastocytes, Lungs [4, 8]: 6.8 ± 0.9% | Percent of degranulated mastocytes, Trachea [4, 8]: 15.0 ± 1.8% | Percent of degranulated mastocytes, Lungs [4, 9]: 6.5 ± 0.9% | Percent of degranulated mastocytes, Trachea [4, 9]: 3.5 ± 1.2%
